Here are results for four compounds from patent publication US11730712B2, “Functionalized long-chain hydrocarbon mono- and di-carboxylic acids and derivatives thereof, and their use for the prevention or treatment of disease” (ESPERVITA THERAPEUTICS, INC., priority 2021, dated 2023).

Common to all, as to type: biochemical
Assay [1] has as its target Aurora B (Homo sapiens, UniProt Q96GD4). Briefly: Kinase assay, wild type kinases. As to conditions: compound 10 μM, 10 μM ATP, duplicate (Data 1, Data 2), >100 activation, <100 inhibition; for remaining activity at 10 µM: read-out: % Enzyme Activity (relative to DMSO controls), Aurora B.
The target in assay [2] is T1, Human ACC1 (Homo sapiens, UniProt Q13085).
T1 construct: FLAG (C); His (C); purchased BPS Biosciences 50202; host or cells: Baculovirus infected Sf9 cells
Briefly: ACC1 enzymatic assay (ADP-Glo). Particulars: recombinant human ACC1 5 nM, 10 μM ATP, 10 μM acetyl CoA; Run 1-3; read-out: Compound IC50 (M) ACC1. As to the method: Human ACC1 (Cat#50202 Lot #120830) and ACC2 (Cat #50201 Lot #160217) were obtained from BPS Biosciences, San Diego, Calif. 92121. Human ACC1 had C-terminal flag and His-tags with a MW of 270 KDa after purification from Baculovirus infected Sf9 cell expression system and came as a solution in 50 mM Tris-HCl, pH 8.0, 500 mM NaCl, 10% glycerol, 1 mM DTT, 100 μg/ml FLAG peptide with 70% purity. The stock concentration was 0.25 mg/ml corresponding to 0.926 μM. Human ACC2 was also purified from Baculovirus infected Sf9 expression system. […] The stock concentration was 0.1 mg/ml corresponding to 0.36 μM. The assay buffer for measuring the activity of ACC contained: 30 mM HEPES (pH 7.4), 2 mM MgCl2, 0.01% Brij35, 2 mM DTT, 1% DMSO (solvent for compound). For ACC1 and ACC2 assays, the following concentrations of substrate and cofactors were used: 12 mM NaHCO3, 10 μM acetyl CoA, 10 μM ATP, and 2 mM K-citrate. The recombinant human enzyme was used at 5 nM for ACC1 and 1 nM for ACC2. In brief, enzyme alone in the above buffer without substrate was used for background. All test materials were dissolved in 100% DMSO using acoustic technology (Echo550). The prepared solution was preincubated for 15 min followed by the addition of 5 μL/well of ADP standard. ATP was then added to start the reaction. The assay contents were spun and briefly shaken followed by incubation at room temperature for 1 h. At the end of completion of assay, 5 μL of ADP-Glo was added to each well to stop the reaction. The contents were mixed, spun and incubated at room temperature for 40 min followed by the addition of 10 μL/well of ADP detection reagent. The contents were spun, mixed and covered with plastic to measure luminescence. […] The light generated, measured in a luminometer, correlates to the amount of ADP generated in the ACC assay, which is indicative of ACC activity.
The enzyme concentrations for ACC1 and ACC2 were 5 nM and 1 nM, respectively.
Data represent nM or μM ADP produced, % Activity (relative to no inhibitor controls), and curve fits were performed by GraphPad Prism software. The IC50 concentration-response curves were generated for both the ACC1 and ACC2 assays using recombinant human ACC.

Assay [3] has as its target MAPKAPK2 (Homo sapiens, UniProt P49137). Briefly: Kinase assay, wild type kinases. Particulars: compound 10 μM, 10 μM ATP, duplicate (Data 1, Data 2), >100 activation, <100 inhibition; for remaining activity at 10 µM: read-out: % Enzyme Activity (relative to DMSO controls), MAPKAPK2.
Assay [4] addresses TNIK (Homo sapiens, UniProt Q9UKE5). Put plainly: Kinase assay, wild type kinases. As to conditions: compound 10 μM, 10 μM ATP, duplicate (Data 1, Data 2), >100 activation, <100 inhibition; for remaining activity at 10 µM: read-out: % Enzyme Activity (relative to DMSO controls), TNIK.
In assay [5] the target is FLT1/VEGFR1 (Homo sapiens, UniProt P17948). Put plainly: Kinase assay, wild type kinases. Particulars: compound 10 μM, 10 μM ATP, duplicate (Data 1, Data 2), >100 activation, <100 inhibition; for remaining activity at 10 µM: read-out: % Enzyme Activity (relative to DMSO controls), FLT1/VEGFR1.
FLT1/VEGFR1, sequence (P17948 27-1338): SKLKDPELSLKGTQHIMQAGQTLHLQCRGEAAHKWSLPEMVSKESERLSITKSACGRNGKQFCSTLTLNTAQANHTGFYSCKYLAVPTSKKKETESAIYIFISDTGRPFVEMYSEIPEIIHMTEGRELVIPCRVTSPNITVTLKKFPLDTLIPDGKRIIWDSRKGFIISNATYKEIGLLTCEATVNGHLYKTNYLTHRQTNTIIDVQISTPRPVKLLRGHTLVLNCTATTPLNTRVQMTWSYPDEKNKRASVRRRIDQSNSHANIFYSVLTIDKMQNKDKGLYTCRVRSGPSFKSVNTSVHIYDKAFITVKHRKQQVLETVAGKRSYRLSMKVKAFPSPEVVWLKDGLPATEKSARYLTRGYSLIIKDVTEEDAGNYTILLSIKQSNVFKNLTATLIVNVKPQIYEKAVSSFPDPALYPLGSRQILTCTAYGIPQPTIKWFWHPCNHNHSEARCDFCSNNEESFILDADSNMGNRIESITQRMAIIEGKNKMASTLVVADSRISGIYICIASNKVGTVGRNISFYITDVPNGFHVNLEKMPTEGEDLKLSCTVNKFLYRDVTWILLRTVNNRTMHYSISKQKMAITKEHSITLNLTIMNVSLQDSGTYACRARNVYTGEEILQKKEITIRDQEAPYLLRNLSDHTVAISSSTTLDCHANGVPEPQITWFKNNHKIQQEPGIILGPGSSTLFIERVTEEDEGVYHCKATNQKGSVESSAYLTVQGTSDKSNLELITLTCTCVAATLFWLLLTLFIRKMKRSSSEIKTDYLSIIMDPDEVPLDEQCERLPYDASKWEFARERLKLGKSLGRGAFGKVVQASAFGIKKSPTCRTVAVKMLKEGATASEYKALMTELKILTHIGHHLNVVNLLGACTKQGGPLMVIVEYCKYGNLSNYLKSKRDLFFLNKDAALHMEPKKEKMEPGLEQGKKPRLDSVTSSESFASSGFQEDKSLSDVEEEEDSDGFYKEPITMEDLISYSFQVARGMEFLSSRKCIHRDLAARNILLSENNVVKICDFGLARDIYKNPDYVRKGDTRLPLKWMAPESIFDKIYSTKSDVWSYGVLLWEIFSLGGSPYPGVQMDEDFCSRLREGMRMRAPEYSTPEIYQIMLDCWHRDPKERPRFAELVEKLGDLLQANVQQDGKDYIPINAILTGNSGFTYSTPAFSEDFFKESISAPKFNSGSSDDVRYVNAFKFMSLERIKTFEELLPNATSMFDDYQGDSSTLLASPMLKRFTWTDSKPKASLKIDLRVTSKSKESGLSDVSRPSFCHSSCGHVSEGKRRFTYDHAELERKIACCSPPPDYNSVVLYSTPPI
Assay [6] addresses LIMK1 (Homo sapiens, UniProt P53667). Briefly: Kinase assay, wild type kinases. As to conditions: compound 10 μM, 10 μM ATP, duplicate (Data 1, Data 2), >100 activation, <100 inhibition; for remaining activity at 10 µM: read-out: % Enzyme Activity (relative to DMSO controls), LIMK1.
Assay [7] concerns the target GSK3b (Homo sapiens, UniProt P49841). Put plainly: Kinase assay, wild type kinases. As to conditions: compound 10 μM, 10 μM ATP, duplicate (Data 1, Data 2), >100 activation, <100 inhibition; for remaining activity at 10 µM: read-out: % Enzyme Activity (relative to DMSO controls), GSK3b.
Assay [8] deals with T2, NEK2 (Homo sapiens, UniProt P51955).
T2 sequence (P51955 1-445): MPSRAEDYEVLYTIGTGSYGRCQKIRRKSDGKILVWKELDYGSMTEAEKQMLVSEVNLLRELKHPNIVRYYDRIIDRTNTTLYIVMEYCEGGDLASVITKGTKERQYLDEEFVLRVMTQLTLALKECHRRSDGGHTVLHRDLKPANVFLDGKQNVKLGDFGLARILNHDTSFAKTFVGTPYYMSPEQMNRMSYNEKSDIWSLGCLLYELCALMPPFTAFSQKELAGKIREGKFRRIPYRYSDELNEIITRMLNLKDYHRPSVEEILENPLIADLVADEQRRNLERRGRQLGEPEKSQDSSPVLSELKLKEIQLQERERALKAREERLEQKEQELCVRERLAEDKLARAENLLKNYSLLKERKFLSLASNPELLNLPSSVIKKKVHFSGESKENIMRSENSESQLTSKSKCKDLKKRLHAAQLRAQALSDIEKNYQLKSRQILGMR
Briefly: Kinase assay, wild type kinases. As to conditions: compound 10 μM, 10 μM ATP, duplicate (Data 1, Data 2), >100 activation, <100 inhibition; for remaining activity at 10 µM: read-out: % Enzyme Activity (relative to DMSO controls), NEK2.

SMILES strings stand for the structures. Values joined by “and” are separate entries in the source; they are usually repeats but may differ in a detail not shown here. Equal entries are not always repeated.

GSK3b, sequence (P49841 whole entry, species assumed): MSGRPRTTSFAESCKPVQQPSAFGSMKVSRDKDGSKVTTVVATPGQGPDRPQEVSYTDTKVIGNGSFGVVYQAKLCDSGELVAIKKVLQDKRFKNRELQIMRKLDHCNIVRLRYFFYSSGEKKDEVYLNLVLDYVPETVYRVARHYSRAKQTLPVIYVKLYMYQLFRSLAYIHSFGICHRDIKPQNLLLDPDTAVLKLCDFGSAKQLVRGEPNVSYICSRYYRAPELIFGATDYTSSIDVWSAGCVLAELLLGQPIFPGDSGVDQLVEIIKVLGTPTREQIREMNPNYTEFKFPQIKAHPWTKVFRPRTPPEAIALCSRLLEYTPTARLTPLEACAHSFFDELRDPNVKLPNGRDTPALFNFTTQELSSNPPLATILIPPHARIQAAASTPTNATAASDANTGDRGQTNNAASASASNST
TNIK, sequence (Q9UKE5 whole entry, species assumed): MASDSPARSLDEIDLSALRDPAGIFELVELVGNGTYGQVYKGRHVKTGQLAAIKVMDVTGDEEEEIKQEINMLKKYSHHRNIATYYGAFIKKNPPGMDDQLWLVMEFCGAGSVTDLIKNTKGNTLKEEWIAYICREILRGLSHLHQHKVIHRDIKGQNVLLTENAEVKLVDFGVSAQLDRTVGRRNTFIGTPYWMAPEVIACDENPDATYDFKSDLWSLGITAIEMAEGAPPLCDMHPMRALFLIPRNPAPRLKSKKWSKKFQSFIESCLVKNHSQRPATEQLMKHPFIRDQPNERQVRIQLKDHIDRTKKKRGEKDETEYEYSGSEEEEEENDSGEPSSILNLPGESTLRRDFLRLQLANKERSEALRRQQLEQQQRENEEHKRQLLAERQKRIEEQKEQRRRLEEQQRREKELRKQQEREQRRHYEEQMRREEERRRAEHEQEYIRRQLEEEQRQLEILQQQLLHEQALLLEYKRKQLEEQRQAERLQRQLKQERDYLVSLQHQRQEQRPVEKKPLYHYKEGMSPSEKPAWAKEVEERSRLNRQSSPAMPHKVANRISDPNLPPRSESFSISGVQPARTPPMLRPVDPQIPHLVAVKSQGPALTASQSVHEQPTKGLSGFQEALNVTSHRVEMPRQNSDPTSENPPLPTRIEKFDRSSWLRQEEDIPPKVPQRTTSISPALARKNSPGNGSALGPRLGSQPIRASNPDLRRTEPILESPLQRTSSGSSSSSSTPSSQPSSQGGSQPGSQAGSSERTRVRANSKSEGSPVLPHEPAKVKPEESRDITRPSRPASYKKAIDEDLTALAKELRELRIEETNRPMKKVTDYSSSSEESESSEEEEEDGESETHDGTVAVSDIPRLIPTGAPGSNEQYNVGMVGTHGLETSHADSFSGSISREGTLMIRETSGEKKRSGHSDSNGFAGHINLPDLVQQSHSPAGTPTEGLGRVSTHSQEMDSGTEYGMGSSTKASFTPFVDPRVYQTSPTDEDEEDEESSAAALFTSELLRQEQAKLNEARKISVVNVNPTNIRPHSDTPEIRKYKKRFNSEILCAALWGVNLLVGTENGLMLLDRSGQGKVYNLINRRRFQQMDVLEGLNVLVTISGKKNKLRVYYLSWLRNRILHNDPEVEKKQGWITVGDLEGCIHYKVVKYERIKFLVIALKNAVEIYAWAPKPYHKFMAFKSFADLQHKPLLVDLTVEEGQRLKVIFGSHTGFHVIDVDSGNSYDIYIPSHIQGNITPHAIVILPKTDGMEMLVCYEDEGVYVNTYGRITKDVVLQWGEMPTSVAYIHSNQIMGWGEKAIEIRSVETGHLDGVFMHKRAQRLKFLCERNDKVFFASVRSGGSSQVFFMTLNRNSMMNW
Aurora B, sequence (Q96GD4 whole entry): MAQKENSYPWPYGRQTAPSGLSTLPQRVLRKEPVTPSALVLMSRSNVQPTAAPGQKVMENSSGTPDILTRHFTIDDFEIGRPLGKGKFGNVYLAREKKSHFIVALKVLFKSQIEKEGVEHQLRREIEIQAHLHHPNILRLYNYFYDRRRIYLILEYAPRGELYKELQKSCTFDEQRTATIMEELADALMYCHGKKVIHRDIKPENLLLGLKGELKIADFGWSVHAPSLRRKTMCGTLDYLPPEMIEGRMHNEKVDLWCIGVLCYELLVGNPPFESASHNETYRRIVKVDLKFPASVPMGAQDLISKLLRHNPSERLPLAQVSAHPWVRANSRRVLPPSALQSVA
LIMK1, sequence (P53667 whole entry, species assumed): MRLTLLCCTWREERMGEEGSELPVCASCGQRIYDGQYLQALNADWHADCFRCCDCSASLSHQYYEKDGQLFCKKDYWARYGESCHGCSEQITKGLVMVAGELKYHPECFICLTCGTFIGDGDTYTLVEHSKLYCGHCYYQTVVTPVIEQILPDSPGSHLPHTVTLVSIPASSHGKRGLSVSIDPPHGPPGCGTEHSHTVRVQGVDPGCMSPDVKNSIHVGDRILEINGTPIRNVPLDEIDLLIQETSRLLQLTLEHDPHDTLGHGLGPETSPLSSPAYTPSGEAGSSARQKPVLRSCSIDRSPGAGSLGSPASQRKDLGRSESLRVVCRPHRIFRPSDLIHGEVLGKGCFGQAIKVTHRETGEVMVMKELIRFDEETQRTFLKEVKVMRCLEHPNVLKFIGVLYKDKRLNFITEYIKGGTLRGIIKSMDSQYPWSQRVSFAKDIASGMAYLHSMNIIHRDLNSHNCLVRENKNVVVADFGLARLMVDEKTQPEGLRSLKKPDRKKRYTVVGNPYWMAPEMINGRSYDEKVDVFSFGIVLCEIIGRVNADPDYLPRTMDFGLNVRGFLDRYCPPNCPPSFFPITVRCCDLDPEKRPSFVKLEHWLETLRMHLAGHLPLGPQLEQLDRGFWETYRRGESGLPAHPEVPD
MAPKAPK2, sequence (P49137 whole entry, species assumed): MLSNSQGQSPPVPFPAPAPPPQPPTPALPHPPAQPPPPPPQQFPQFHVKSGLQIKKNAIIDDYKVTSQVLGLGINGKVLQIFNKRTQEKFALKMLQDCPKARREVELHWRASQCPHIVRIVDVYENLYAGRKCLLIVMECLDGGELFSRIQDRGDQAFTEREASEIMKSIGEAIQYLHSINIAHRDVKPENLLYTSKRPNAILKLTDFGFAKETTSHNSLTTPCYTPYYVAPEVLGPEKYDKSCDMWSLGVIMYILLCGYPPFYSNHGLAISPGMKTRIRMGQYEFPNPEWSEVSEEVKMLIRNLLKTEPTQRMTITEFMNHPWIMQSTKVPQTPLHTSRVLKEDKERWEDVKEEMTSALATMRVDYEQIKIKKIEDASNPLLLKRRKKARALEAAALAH

On to `CC(C)(CCCCc1cccc(CCCCC(C)(C)C(=O)SCCNC(=O)CCNC(=O)[C@H](O)C(C)(C)COP(=O)(O)OP(=O)(O)OC[C@H]2O[C@@H](n3cnc4c(N)ncnc43)[C@H](O)[C@@H]2OP(=O)(O)O)c1)C(=O)O` [Compound I-32-CoA, 6-[3-(5-Carboxy-5-methylhexyl)-phenyl]-2,2-dimethylhexanoic acid Coenzyme A Ester], for which the “% Enzyme Activity (relative to DMSO controls), Aurora B” value in assay [1] is 33.27% and 30.67%. Also, in assay [2], the IC50 is 5.07e-06 M and 5e-06 M and 6.03e-06 M. The “% Enzyme Activity (relative to DMSO controls), MAPKAPK2” value in assay [3] is 17.17% and 15.90%. Further, the “% Enzyme Activity (relative to DMSO controls), TNIK” value in assay [4] was 70.02% and 66.13%. Besides, the “% Enzyme Activity (relative to DMSO controls), FLT1/VEGFR1” value in assay [5] is 52.06% and 51.61%. In addition, the “% Enzyme Activity (relative to DMSO controls), LIMK1” value in assay [6] was 47.31% and 45.01%. Moreover, in assay [7], the “% Enzyme Activity (relative to DMSO controls), GSK3b” value is 23.69% and 22.51%. In addition, the “% Enzyme Activity (relative to DMSO controls), NEK2” value in assay [8] is 35.98% and 34.99%.
`CC(C)(CCCCc1cccc(CCCCC(C)(C)C(=O)O)c1)C(=O)O` [Compound I-32, 6-[3-(5-carboxy-5-methylhexyl)-phenyl]-2,2-dimethylhexanoic acid]: the remaining activity at 10 µM in assay [1] was 71.4%; in assay [3] it was 91.7%; in assay [4], 101%; in assay [5], 92.3%; in assay [6] it was 83.8%; in assay [7] it was 78%. In addition, the remaining activity at 10 µM in assay [8] amounted to 87.8%. Further, the half-maximal inhibitory concentration (IC50) in assay [2] was 0.000284 M and 0.000272 M and 0.00022 M.
As for `CC(C)(CCCCc1ccc(CCCCC(C)(C)C(=O)SCCNC(=O)CCNC(=O)[C@H](O)C(C)(C)COP(=O)(O)OP(=O)(O)OC[C@H]2O[C@@H](n3cnc4c(N)ncnc43)[C@H](O)[C@@H]2OP(=O)(O)O)cc1)C(=O)O` [Compound I-1-CoA, 6-[4-(5-carboxy-5-methylhexyl)-phenyl]-2,2-dimethylhexanoic acid Coenzyme A ester], in assay [1], the “% Enzyme Activity (relative to DMSO controls), Aurora B” value was 36.79% and 32.68%. Also, the IC50 in assay [2] was 1.63e-05 M and 1.33e-05 M and 1.25e-05 M. Moreover, the “% Enzyme Activity (relative to DMSO controls), MAPKAPK2” value in assay [3] was 85.04% and 84.66%. Further, the “% Enzyme Activity (relative to DMSO controls), TNIK” value in assay [4] was 39.22% and 36.50%. Moreover, the “% Enzyme Activity (relative to DMSO controls), FLT1/VEGFR1” value in assay [5] is 84.17% and 82.94%. In assay [6], the “% Enzyme Activity (relative to DMSO controls), LIMK1” value is 77.88% and 76.61%. Besides, the “% Enzyme Activity (relative to DMSO controls), GSK3b” value in assay [7] was 63.29% and 62.44%. Also, the “% Enzyme Activity (relative to DMSO controls), NEK2” value in assay [8] was 0.89% and 0.63%.
Regarding `CC(C)(CCCCc1ccc(CCCCC(C)(C)C(=O)O)cc1)C(=O)O` [Compound I-1, 6-[4-(5-carboxy-5-methylhexyl)-phenyl]-2,2-dimethylhexanoic acid], the remaining activity at 10 µM in assay [1] was found to be 69%; in assay [3] it was 93.1%; in assay [4] it was 106%; in assay [5], 90.3%; in assay [6] it was 81%; in assay [7], 83.2%. Besides, the remaining activity at 10 µM in assay [8] was determined as 90.3%.
